Experimental data published in US20070078100A1, “Methods of detecting poly(adp-ribose) polymerase and other nad+ utilizing enzymes” (THE BOARD OF TRUSTEES OF THE UNIVERSITY OF ILLINOI, priority 2003, published 2007).
Where two headings read alike, the source gives them in different places.

Legend:
PARP-1 = target: T1, PARP-1 (Homo sapiens, UniProt P09874); test: NAD+ quantitation (fluorescence) assay, determination of IC50 values for PARP inhibitors; assay type: biochemical
T1 construct: purchased Trevigen
T1 sequence (P09874 whole entry): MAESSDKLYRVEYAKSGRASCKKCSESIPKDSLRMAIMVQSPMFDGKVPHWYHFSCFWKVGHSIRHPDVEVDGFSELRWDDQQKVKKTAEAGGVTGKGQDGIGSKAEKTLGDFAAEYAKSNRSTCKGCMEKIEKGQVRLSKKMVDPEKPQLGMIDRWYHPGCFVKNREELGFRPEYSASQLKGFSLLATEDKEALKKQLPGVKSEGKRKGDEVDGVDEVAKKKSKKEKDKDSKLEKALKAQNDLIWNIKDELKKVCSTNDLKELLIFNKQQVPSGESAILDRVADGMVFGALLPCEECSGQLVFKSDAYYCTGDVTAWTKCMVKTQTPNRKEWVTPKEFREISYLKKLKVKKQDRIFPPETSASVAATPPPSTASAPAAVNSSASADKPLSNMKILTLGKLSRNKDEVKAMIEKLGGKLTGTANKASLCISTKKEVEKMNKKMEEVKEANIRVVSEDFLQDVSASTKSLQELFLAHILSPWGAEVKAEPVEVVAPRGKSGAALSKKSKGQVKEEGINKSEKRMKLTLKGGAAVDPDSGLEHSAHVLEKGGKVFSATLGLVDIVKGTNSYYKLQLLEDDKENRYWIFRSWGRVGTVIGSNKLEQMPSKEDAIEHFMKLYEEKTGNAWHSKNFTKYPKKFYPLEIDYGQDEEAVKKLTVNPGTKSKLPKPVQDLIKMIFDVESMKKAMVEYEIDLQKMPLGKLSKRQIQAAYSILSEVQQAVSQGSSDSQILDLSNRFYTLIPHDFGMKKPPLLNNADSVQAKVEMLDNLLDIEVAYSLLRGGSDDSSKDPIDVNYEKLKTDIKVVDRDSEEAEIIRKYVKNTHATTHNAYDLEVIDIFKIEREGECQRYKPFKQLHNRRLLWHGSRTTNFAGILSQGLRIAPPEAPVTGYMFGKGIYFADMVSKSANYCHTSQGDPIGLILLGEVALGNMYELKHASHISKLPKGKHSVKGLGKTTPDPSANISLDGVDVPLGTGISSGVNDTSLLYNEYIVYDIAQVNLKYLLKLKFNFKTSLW
Protocol: This assay was also applied to determine the IC50 values of the known PARP inhibitors. For these determinations, the inhibitors, at a variety of concentrations, were added to a 96-well plate containing NAD+ and nicked DNA. PARP-1 was then added, and the reaction was allowed to proceed for 15 min. At this point acetophenone/KOH was added, which serves to both quench the PARP-1 enzymatic activity and to begin the conversion of any remaining NAD+ to the fluorophore. After 10 min at 4° C. in the presence of acetophenone/KOH, a solution of formic acid was added and the mixture was incubated in a 110° C. oven for 5 minutes.
In addition, only very low levels of NAD+ were used in this assay (100 nM). […] However, NAD+ concentrations up to 100 μM can also be used, if one desires a direct correlation with other assay methods that typically use micromolar amounts of NAD+ substrate.
The reaction was initiated by adding 10 μL of PARP at a concentration of 10 μg/mL (in PARP assay buffer), bringing the final concentration to 2 μg/mL PARP, 10 μg/mL DNA, 100 nM NAD+ with varying concentrations of inhibitors in a total volume of 50 μL. The plate was incubated for 15 min at room temperature and the amount of NAD+ was then determined by the fluorescence method as described above for the calibration curve. The average value of control wells containing only NAD+ was set as 0% PARP activity, while the average value of control wells containing NAD+ and PARP (but no inhibitor) was set as 100% PARP activity. […] All data points in FIG. 8 were determined in quadruplicate.
Graphs were analyzed using Table Curve 2D. NAD+ standard curves were fitted with a least squares linear model and inhibitor curves were fitted with a logistic dose response curve.

PARP = PARP (Homo sapiens, UniProt P09874); conditions: literature values, references in brackets; cited from earlier work
PARP, sequence (P09874 whole entry): as above

[1] = 100 nM NAD+, 2 μg/mL PARP, 10 μg/mL DNA, 15 min at room temperature, 96-well plate, read-out: IC50 value

Structure (SMILES) | IC50 (PARP-1; [1]) | IC50 (PARP-1) | IC50 (PARP)
O=c1[nH]c2ccccc2c2ccccc12 [6(5H)-phenanthridinons, 6(5H)-phenanthridinone] | 305 nM | – | –
O=C1NCCc2c(OCCCCN3CCCCC3)cccc21 [DPQ, 3,4-dihydro-5-[4-(1-piperidinyl)butoxy]-1 (2B)-isoquinolinone] | – | 37 nM | –
NC(=O)c1ccccc1 [benzamide] | 1440 nM | – | 1300 nM
